Reference: PMC8911630, “New Pharmacological Strategies against Pancreatic Adenocarcinoma: The Multifunctional Thiosemicarbazone FA4” (Molecules, 2022)
Read-outs that look alike come from different tables or passages of the source.

What was measured:
[1] = tested on: PANC-1 cell line; test: Cytotoxicity in PANC-1 cell line; assay type: cell-based, human
[2] = tested on: PDAC xenografts; parameters: method as in PMID 34586588; conditions: cited from earlier work
[3] = tested on: PDAC-2 cells; test: cells; conditions: Homo sapiens, PDAC-2, 72 h, read-out: Cytotoxicity IC50 ± SD
Description: (§9) Human pancreatic adenocarcinoma primary cultures (PDAC1 and PDAC2) were cultured in RPMI + 10 % New Born Calf Serum + 1% Penicillin/ Streptomycin and maintained in standard conditions for <20 passages. Cells were routinely tested for Mycoplasma spp. and were free of contamination.
(§10) Cells were seeded in 96-well flat-bottom plates at a density of 3000/well, using both a control plate and an experimental plate. After 24 h, the control plate was fixed with cold 50% trichloroacetic acid, and the incubation with the compound of interest was performed in the experimental plate. After 72 h of incubation, the experimental plate was also fixed. Subsequently, both plates were washed and stained with the SRB solution, and after vigorous washing and drying, the bound dye was extracted from the cells with an alkaline solution. The absorption of SRB was measured spectrophotometrically at a wavelength of 490 nm and 540 nm. […] Thus, cell growth inhibition was calculated as the percentage versus vehicle-treated cells (“negative control”) OD (corrected for OD of the control plate before drug addiction). Finally, the half maximal inhibitory concentration (IC50) was calculated by nonlinear least squares curve fitting (GraphPad Prism 7, Intuitive Software for Science, San Diego, CA, USA), as described previously [33]. […]

[4] = tested on: PDAC-1 cells; test: cells; conditions: Homo sapiens, 72 h, read-out: Cytotoxicity IC50 ± SD
Description: as §9, §10

[5] = tested on: PDAC-2 cells; test: Scratch wound-healing migration assay, PDAC-2; assay type: cell-based, human; conditions: PDAC-2, FA4 10 µM, 24 h
Description: (§1) Cancer cell migration is a key factor contributing to the aggressiveness of PDAC. It is therefore important to find new compounds that can counteract or stop this process. To evaluate the effect of FA4 on cell migratory properties, a migration assay was performed by incubating cells for 24 h with FA4.
(§2) Cells were seeded into 96-well plates 72 h before the assay at a density of 5 × 10^4 /well and allowed to attach and to become confluent. Subsequently, a scratch was performed in every well with a 96-pin scratcher, allowing the formation of uniform scratches. Immediately after this passage, cells were cultured for 24 h in complete medium with the drug of interest for experimental wells or without any drug for the control wells. Pictures were taken with an optical microscope at different time points (0, 6, and 24 h) and analyzed with the Scratch Assay 6.2 software (Digital Cell Imaging Labs, Keerbergen, Belgium). The migration assay was performed in technical and biological triplicates, as reported previously.

[6] = tested on: PDAC-1 cells; test: Apoptosis assay (annexinV-FITC), PDAC-1; assay type: cell-based, human
Description: (§3) Previous studies reported that the modulation of σ2 receptor activity contributes to the initiation of the apoptotic process. Therefore, we evaluated the effect of FA4 on the induction of apoptosis in the PDAC primary cultures. To this aim, we measured the externalization of the plasma membrane phosphatidylserine, a reliable marker of cell apoptosis, which was quantified by the measurement of the fluorescence of annexin-V by spectrophotometric assay and microscopy. After 24 h of treatment with 10 μM FA4, a significant increase in the portion of apoptotic cells was observed compared to untreated control cells. The highest apoptotic index was measured in the PDAC-2 cells (17.6 ± 3.6, compared to 15.5 ± 4.9 in the PDAC-1 cells).
(§4) Cells were seeded in 96-well plates (5 × 10^3 cells/well), and after 24 h, the cells were fixed with 4% paraformaldehyde in PBS for 30 min, then washed twice with PBS and stained with annexinV-FITC in binding buffer (10 mM HEPES/NaOH pH 7.4, 140 mM NaCl, and 2.5 mM CaCl2) for 10 min in the dark at room temperature. Lastly, cells were washed with the assay binding buffer solution, and fluorescence was measured by using a multimode plate reader with excitation and emission filters at 485 nm and 535 nm, respectively, to determine the apoptotic index. […]

[7] = tested on: PDAC-2 cells; test: Apoptosis assay (annexinV-FITC), PDAC-2; assay type: cell-based, human
Description: as §3, §4

[8] = tested on: normal HPDE cells; test: Sulforhodamine B (SRB) assay, HPDE; assay type: cell-based, human; conditions: HPDE cells vs PDAC tumor cells
Description: (§11) Cells were seeded in 96-well flat-bottom plates at a density of 3000/well, using both a control plate and an experimental plate. After 24 h, the control plate was fixed with cold 50% trichloroacetic acid, and the incubation with the compound of interest was performed in the experimental plate. After 72 h of incubation, the experimental plate was also fixed. Subsequently, both plates were washed and stained with the SRB solution, and after vigorous washing and drying, the bound dye was extracted from the cells with an alkaline solution. The absorption of SRB was measured spectrophotometrically at a wavelength of 490 nm and 540 nm. The intensity of the signal is proportional to the number of living cells and, therefore, a measure of their proliferation. Thus, cell growth inhibition was calculated as the percentage versus vehicle-treated cells (“negative control”) OD (corrected for OD of the control plate before drug addiction). Finally, the half maximal inhibitory concentration (IC50) was calculated by nonlinear least squares curve fitting (GraphPad Prism 7, Intuitive Software for Science, San Diego, CA, USA), as described previously [33]. The SRB assay was performed in technical and biological triplicates.

[9] = Sulforhodamine B (SRB) assay, HPDE; assay type: cell-based, human; conditions: human; HPDE nontransformed cells, SRB, 72 h; read-out: Cytotoxicity IC50 ± SD
Description: as §11

[10] = tested on: PDAC-1 cells; test: Scratch wound-healing migration assay, PDAC-1; assay type: cell-based, human; conditions: PDAC-1, FA4 10 µM, 24 h
Description: as §1, §2

[11] = tested on: normal fibroblast Hs27 cells; test: Sulforhodamine B (SRB) assay, Hs27; assay type: cell-based, human; conditions: Hs27 cells vs PDAC tumor cells
Description: as §11

[12] = Sulforhodamine B (SRB) assay, Hs27; assay type: cell-based, human; conditions: human, normal skin fibroblast Hs27 cells; Hs27 nontransformed cells, SRB, 72 h; read-out: Cytotoxicity IC50 ± SD
Description: as §11

[13] = tested on: pancreatic ductal adenocarcinoma (PDAC) primary cell cultures; test: Antiproliferative activity on PDAC primary cell cultures (both cultures together); assay type: cell-based; conditions: Homo sapiens; range over PDAC primary cell cultures; read-out: half maximal inhibitory concentration (IC50)
From the text: A new sigma-2 (σ2) receptor ligand (FA4) was efficiently synthesized and evaluated for cytotoxic, proapoptotic, and antimigratory activity on pancreatic ductal adenocarcinoma (PDAC) primary cell cultures, which restrained the aggressive and chemoresistant behavior of PDAC. […] The cytotoxic activity was associated with induction of apoptosis, resulting in apoptotic indexes higher than those observed after exposure to a clinically relevant concentration of the gemcitabine, the first-line drug used against PDAC.

[14] = tested on: PANC-1 cell line; parameters: method as in PMID 34586588; conditions: read-out: Cytotoxicity IC50 ± SD PANC-1; cited from earlier work
[15] = biological target: σ1 receptor (Cavia porcellus, UniProt Q60492); test: σ1 receptor radioligand binding assay; conditions: mean of n ≥ 3 separate experiments in duplicate, read-out: Ki ± SD σ1
Sequence of σ1 receptor (Q60492 whole entry): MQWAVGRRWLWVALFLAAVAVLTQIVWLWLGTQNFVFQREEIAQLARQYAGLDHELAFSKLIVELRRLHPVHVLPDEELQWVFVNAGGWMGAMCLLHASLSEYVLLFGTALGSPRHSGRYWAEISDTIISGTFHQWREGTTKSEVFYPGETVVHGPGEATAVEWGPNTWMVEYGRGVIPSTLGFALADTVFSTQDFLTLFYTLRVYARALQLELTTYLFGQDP
Description: (§5) The compounds underwent radioligand binding assays on σ1 and σ2 receptors, according to the previously adopted protocols.
(§6) σ1 and σ2 receptor binding were carried out following Matsumoto et al.. […] All the procedures for the binding assays were described previously by Abate and collaborators.

[16] = tested on: breast adenocarcinoma MCF7 cells; test: Cytotoxicity in MCF7 cells; assay type: cell-based; conditions: Homo sapiens
Description: (§7) On the other hand, the data also confirmed the need for a strategy with a greater impact on pancreatic tumors. From this perspective, the multitarget FA4 appeared to be a promising candidate and was selected to be further investigated in the primary PDAC cell cultures of the present study.
(§8) Previous experiments were performed with human pancreas cancer cell lines PANC-1 (CRL-1469™), MiaPaCa2 (CRL-1420™), BxPC-3 (CRL-1687™), PANC-02.03 (CRL-2553™), AsPC-1 (CRL-1682™), human A549 lung cancer cells (CRM-CCL-185™), human MCF7 adenocarcinoma breast cells (HTB-22™), and human HepG2 hepatocarcinoma cells (HB-8065™), obtained from ATCC. PANC-1, MiaPaCa2, BxPC-3, PANC-02.03, AsPC-1, and MCF7cells were cultured in DMEM with heat inactivated 10% FBS, penicillin ([…]), and streptomycin ([…]). HepG2 cells were cultured in MEM supplemented with 10% (v/v) heat inactivated FPS, 1% (v/v) glutamine, 1% (v/v) penicillin, and streptomycin, 1% (v/v) NEAA. A549 cells were grown in HAM’S F12 supplemented with 10% heat inactivated FBS, 2 mM glutamine, 100 U mL^−1 penicillin, and 100 μg/mL streptomycin. All these cells were kept at 37 °C in a humidified incubator under an atmosphere of 5% CO2 in 75 cm^2 tissue culture flasks (Greiner Bio-One GmbH, Frickenhausen, Germany) and were harvested with trypsin-EDTA in their exponentially growing phase.

[17] = biological target: T1, σ2 receptor (Rattus norvegicus, UniProt Q5U3Y7); test: σ2 receptor radioligand binding assay
T1 sequence (Q5U3Y7 1-176): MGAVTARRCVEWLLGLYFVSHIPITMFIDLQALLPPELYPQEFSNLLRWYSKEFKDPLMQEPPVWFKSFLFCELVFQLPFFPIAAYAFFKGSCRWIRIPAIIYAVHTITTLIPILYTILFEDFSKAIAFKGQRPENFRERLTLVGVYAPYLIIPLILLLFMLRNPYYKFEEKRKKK
Description: as §5, §6

[18] = tested on: lung adenocarcinoma A549 cells; test: Cytotoxicity in A549 cells; assay type: cell-based; conditions: Homo sapiens
Description: as §7, §8

[19] = tested on: hepatocarcinoma HepG2 cells; test: Cytotoxicity in HepG2 cells; assay type: cell-based; conditions: Homo sapiens
Description: as §7, §8

[20] = Homo sapiens, PANC-1, read-out: Cytotoxicity IC50 ± SD PANC-1

SMILES: Cc1ccccc1N=C(N)Nc1ccccc1C [DTG]
- IC50 ([1]; PANC-1 cell line, read-out: Cytotoxicity IC50 ± SD PANC-1): > 50 µM

SMILES: CC(C)=CCN1CC[C@]2(C)c3cc(O)ccc3C[C@H]1[C@H]2C [(+)-pentazocine]
- IC50 [1, 20]: > 50 µM

SMILES: CN(C)C(=S)N/N=C1\C(=O)N(CCCCN2CCC3(CC2)OCc2ccccc23)c2ccccc21 [FA4]
- safety in PDAC xenografts [2]: safe
- IC50 [3]: 0.701 ± 0.059 µM
- IC50 [4]: 0.825 ± 0.006 µM
- migration rate [5]: significantly inhibit the migration rate
- apoptotic index ([6]; PDAC-1, 10 μM, 24 h, annexinV-FITC fold change compared to control cells): 15.5 ± 4.9
- percentages of apoptotic cells compared to gemcitabine at 10 μM ([6]; PDAC-1, 24 h treatment): significantly higher
- apoptotic index ([7]; PDAC-2, 10 μM, 24 h, annexinV-FITC fold change compared to control cells): 17.6 ± 3.6
- percentages of apoptotic cells compared to gemcitabine at 10 μM ([7]; PDAC-2, 24 h treatment): significantly higher
- selectivity index (SI, IC50 non-tumor cells/IC50 tumor cells) [8]: 11
- IC50 at 72 h [9]: 8.07 ± 0.302 µM
- migration rate [10]: significantly inhibit the migration rate
- selectivity index (SI, IC50 non-tumor cells/IC50 tumor cells) [11]: 7
- IC50 at 72 h [12]: 5.55 ± 0.333 µM
- IC50 [13]: 0.701 to 0.825 µM
- IC50 [14]: 3.01 ± 0.9 µM

SMILES: c1ccc2c(c1)COC21CCN(CCCCn2ccc3ccccc32)CC1 [MT8, 1’-(4-(1H-indol-1-yl)butyl)-3H-spiro[isobenzofuran-1,4’-piperidine]]
- Ki [15]: 0.0273 ± 0.0026 µM
- IC50 [16]: 6.02 µM
- Ki [17]: 0.00043 ± 0.0001 µM
- IC50 [18]: 4.29 µM
- IC50 [19]: 3.2 µM
- cytotoxic potency relative to FA4 [1]: six-fold less potent than FA4
- IC50 [1, 20]: 19.1 ± 1.3 µM

SMILES: Fc1ccc(-n2cc(CCCCN3CCC4(CC3)OCc3ccccc34)c3ccccc32)cc1 [Siramesine]
- IC50 ([1]; Homo sapiens, PANC-1 cell line, read-out: Cytotoxicity IC50 ± SD PANC-1): > 50 µM
